The nature of the assay: Human clinical study with DITPA: weight loss in patients with a history of congestive heart failure. The class given is in vivo. The conditions noted are these: maximum 26 weeks; for patients who experienced a weight loss of 2% or more: DITPA or placebo (2:1) orally, 90 mg/day increased to 180 or 360 mg/day. How it is done: Fifty-four patients with a history of congestive heart failure were administered DITPA or placebo in a 2:1 randomized and double-blinded manner for a maximum of 26 weeks. […] The patients in the study were administered DITPA orally twice per and the dose began at 90 mg/day and increased to 180 mg/day after two weeks. In half of the DITPA patients, the dose was increased further to 270 mg/day after two weeks, and then to 360 mg/day. Patients were randomized 1:1:1 to DITPA 180 mg/day, DITPA 360 mg/day, or placebo.

For the compound `O=C(O)CCc1cc(I)c(Oc2ccc(O)cc2)c(I)c1` [DITPA, 3,5-diiodothyropropionic acid], the “decrease in weight, overweight patients versus patients of normal body weight” value (oral DITPA 180 or 360 mg/day) is reported as “greater decrease in weight in overweight patients than those of normal body weight”. For the same compound, the “patients who experienced a weight loss of 2% or more” value runs as follows: (patients with body mass index greater than 25) 71.05%; (patients with body mass index less than or equal to 25) 37.5%.
